Experimental data published in patent US20250213496A1, “LIPID NANOPARTICLES AND PREPARATION METHODS AND USE THEREOF” (priority 2022, published 2025).

Experiment: HPLC quantification of retinoid compound in LNP (encapsulation efficiency)
Type: physicochemical
Details: HPLC after diluting LNP with ethanol; AM80 275 nm, ATRA 350 nm
Procedure: The content of the retinoid compound in the LNP is determined by high performance liquid chromatography (HPLC), including: preparing a gradient dilution standard solution of ATRA or AM80, establishing the HPLC method, sequentially injecting 100 μL of different concentrations of the standard solution, and plotting the standard curve by using the ultraviolet absorption peak areas of different concentrations of ATRA or AM80. The five-component LNP is broken by ethanol with a volume more than 10 times the volume of the LNP, and the volume of each injection is controlled to be 100 μL; the peak area is substituted into the standard curve to obtain the content of ATRA or AM80 in the lipid solution.
Chromatographic conditions: Sunfire C18 column (150 mm×4.6 mm, 5 μm), column temperature (25° C.), mobile phase A (acetonitrile), mobile phase B (0.1 M triethylamine acetate buffer solution with a pH of 7.0), flow rate of 1.0 mL/min, and injection volume of 100 μL each time.
The standard solutions of AM80 with different concentrations were prepared with ethanol, and HPLC injection and gradient elution were performed. […] After diluting LNP with the ethanol, HPLC injection was performed, the AM80 content in the LNP solution was quantified according to the absorption peak area at 275 nm, and an encapsulation efficiency of AM80 is 45%-65%. […]

SMILES	encapsulation efficiency of retinoid compound in LNP
CC1(C)CCC(C)(C)c2cc(NC(=O)c3ccc(C(=O)O)cc3)ccc21 [AM80, tamibarotene]	45%-65
CC1=C(/C=C/C(C)=C/C=C/C(C)=C/C(=O)O)C(C)(C)CCC1 [ATRA, all-trans-retinoic acid]	40%-70
